Blank lines part the entries; values can stand above or below the compound they belong to.
What was measured:
[1] = tested on: Acinetobacter baumannii; assay: Bactericidal activity against Acinetobacter baumannii incubated for overnight; type: functional
[2] = tested on: Staphylococcus aureus; assay: Bactericidal activity against Staphylococcus aureus incubated for overnight; type: functional
[3] = Hemolytic activity in human RBC at 100 ug/ml incubated for 1 hr; type: toxicity, cell-based, Erythrocyte; conditions: human red blood cells (erythrocytes), at 100 µg/mL, read-out: Activity
[4] = tested on: Staphylococcus haemolyticus; assay: Bactericidal activity against Staphylococcus haemolyticus incubated overnight; type: functional
[5] = tested on: Salmonella typhimurium; assay: Antibacterial activity against Salmonella typhimurium incubated for 16 to 20 hrs; type: functional, Salmonella enterica subsp. enterica serovar Typhimurium; conditions: Salmonella enterica; time 16-20 hrs
[6] = tested on: Candida tropicalis; assay: Fungicidal activity against Candida tropicalis incubated overnight; type: functional
[7] = tested on: Salmonella enterica; assay: Antibacterial activity against Salmonella enterica incubated for 16 to 20 hrs; type: functional; conditions: time 16-20 hrs
[8] = tested on: Streptococcus iniae; assay: Bactericidal activity against Streptococcus iniae incubated overnight; type: functional
[9] = tested on: Enterococcus faecalis; assay: Antibacterial activity against Enterococcus faecalis incubated for 16 to 20 hrs; type: functional; conditions: time 16-20 hrs
[10] = tested on: Vibrio vulnificus; assay: Antibacterial activity against Vibrio vulnificus V1 incubated for 16 to 20 hrs; type: functional; conditions: time 16-20 hrs
[11] = tested on: Salmonella enterica; assay: Bactericidal activity against Salmonella enterica incubated overnight; type: functional
[12] = tested on: Staphylococcus haemolyticus; assay: Antibacterial activity against Staphylococcus haemolyticus incubated for 16 to 20 hrs; type: functional; conditions: time 16-20 hrs
[13] = tested on: Streptococcus agalactiae; assay: Bactericidal activity against Streptococcus agalactiae incubated overnight; type: functional
[14] = tested on: Klebsiella pneumoniae; assay: Bactericidal activity against NDM Klebsiella pneumoniae incubated overnight; type: functional
[15] = tested on: Candida tropicalis; assay: Antifungal activity against Candida tropicalis incubated for 16 to 20 hrs; type: functional; conditions: time 16-20 hrs
[16] = tested on: Klebsiella aerogenes; assay: Bactericidal activity against Enterobacter aerogenes incubated overnight; type: functional
[17] = tested on: Vibrio vulnificus; assay: Antibacterial activity against Vibrio vulnificus V2 incubated for 16 to 20 hrs; type: functional; conditions: time 16-20 hrs
[18] = tested on: Vibrio vulnificus; assay: Antibacterial activity against Vibrio vulnificus V3 incubated for 16 to 20 hrs; type: functional; conditions: time 16-20 hrs
[19] = tested on: Aeromonas hydrophila; assay: Antibacterial activity against Aeromonas hydrophila incubated for 16 to 20 hrs; type: functional; conditions: time 16-20 hrs
[20] = tested on: Pseudomonas aeruginosa; assay: Antibacterial activity against Pseudomonas aeruginosa incubated for 16 to 20 hrs; type: functional; conditions: time 16-20 hrs
[21] = tested on: Edwardsiella tarda; assay: Bactericidal activity against Edwardsiella tarda incubated overnight; type: functional
[22] = tested on: Vibrio vulnificus; assay: Bactericidal activity against Vibrio vulnificus 204 incubated overnight; type: functional
[23] = tested on: Vibrio vulnificus; assay: Antibacterial activity against Vibrio vulnificus 204 incubated for 16 to 20 hrs; type: functional; conditions: time 16-20 hrs
[24] = tested on: Enterococcus faecalis; assay: Bactericidal activity against Enterococcus faecalis incubated overnight; type: functional
[25] = tested on: Vibrio anguillarum; assay: Antibacterial activity against Listonella anguillarum incubated for 16 to 20 hrs; type: functional; conditions: time 16-20 hrs
[26] = tested on: Klebsiella oxytoca; assay: Bactericidal activity against Klebsiella oxytoca incubated overnight; type: functional
[27] = tested on: Salmonella typhimurium; assay: Bactericidal activity against Salmonella typhimurium incubated overnight; type: functional, Salmonella enterica subsp. enterica serovar Typhimurium; conditions: Salmonella enterica
[28] = tested on: Vibrio vulnificus; assay: Bactericidal activity against Vibrio vulnificus V3 incubated overnight; type: functional
[29] = tested on: Pseudomonas aeruginosa; assay: Bactericidal activity against Pseudomonas aeruginosa incubated overnight; type: functional
[30] = tested on: Klebsiella pneumoniae; assay: Antibacterial activity against NDM Klebsiella pneumoniae incubated for 16 to 20 hrs; type: functional; conditions: time 16-20 hrs
[31] = tested on: Vibrio alginolyticus; assay: Antibacterial activity against Vibrio alginolyticus incubated for 16 to 20 hrs; type: functional; conditions: time 16-20 hrs
[32] = tested on: Escherichia coli; assay: Antibacterial activity against Escherichia coli incubated for 16 to 20 hrs; type: functional; conditions: time 16-20 hrs
[33] = tested on: Edwardsiella tarda; assay: Antibacterial activity against Edwardsiella tarda incubated for 16 to 20 hrs; type: functional; conditions: time 16-20 hrs
[34] = tested on: Aeromonas hydrophila; assay: Bactericidal activity against Aeromonas hydrophila incubated overnight; type: functional
[35] = tested on: Nakaseomyces glabratus; assay: Fungicidal activity against Candida glabrata incubated overnight; type: functional
[36] = tested on: Vibrio harveyi; assay: Bactericidal activity against Vibrio harveyi incubated overnight; type: functional
[37] = tested on: Enterococcus faecium; assay: Bactericidal activity against Enterococcus faecium incubated overnight; type: functional
[38] = tested on: Escherichia coli; assay: Bactericidal activity against Escherichia coli incubated overnight; type: functional
[39] = tested on: Nakaseomyces glabratus; assay: Antifungal activity against Candida glabrata incubated for 16 to 20 hrs; type: functional; conditions: time 16-20 hrs
[40] = tested on: Klebsiella oxytoca; assay: Antibacterial activity against Klebsiella oxytoca incubated for 16 to 20 hrs; type: functional; conditions: time 16-20 hrs
[41] = tested on: Streptococcus iniae; assay: Antibacterial activity against Streptococcus iniae incubated for 16 to 20 hrs; type: functional; conditions: time 16-20 hrs
[42] = tested on: Vibrio anguillarum; assay: Bactericidal activity against Listonella anguillarum incubated overnight; type: functional
[43] = tested on: Vibrio vulnificus; assay: Bactericidal activity against Vibrio vulnificus V1 incubated overnight; type: functional
[44] = tested on: Vibrio harveyi; assay: Antibacterial activity against Vibrio harveyi incubated for 16 to 20 hrs; type: functional; conditions: time 16-20 hrs
[45] = tested on: Vibrio alginolyticus; assay: Bactericidal activity against Vibrio alginolyticus incubated overnight; type: functional
[46] = tested on: Vibrio vulnificus; assay: Bactericidal activity against Vibrio vulnificus V2 incubated overnight; type: functional
[47] = tested on: Streptococcus agalactiae; assay: Antibacterial activity against Streptococcus agalactiae incubated for 16 to 20 hrs; type: functional; conditions: time 16-20 hrs
[48] = tested on: Enterococcus faecium; assay: Antibacterial activity against Enterococcus faecium incubated for 16 to 20 hrs; type: functional; conditions: time 16-20 hrs
[49] = tested on: Klebsiella aerogenes; assay: Antibacterial activity against Enterobacter aerogenes incubated for 16 to 20 hrs; type: functional; conditions: time 16-20 hrs
[50] = tested on: Acinetobacter baumannii; assay: Antibacterial activity against Acinetobacter baumannii; type: functional
[51] = tested on: Vibrio vulnificus; assay: Antibacterial activity against Vibrio vulnificus 204 assessed as induction of resistance development by measuring fold increase in MIC measured after 15 passages; type: functional
[52] = tested on: Vibrio vulnificus; assay: Antibacterial activity against Vibrio vulnificus infected in BALB/c mouse wound infection model assessed as survival at 0.048 ug per animal administered 12 hrs post infection and measured for 14 days; type: functional; conditions: dose 0.048 µg; time 14 day

Compound: H-FKDKSVLKIVKIFVKIYF-OH
- MBC [1]: > 100 µg/mL
- MBC [2]: > 100 µg/mL
- hemolysis at 1 h, 100 ug/ml [3]: 2.2%

- MIC [5]: 100 µg/mL
- MIC [7]: 25 µg/mL
- MIC [9]: 50 µg/mL
- MIC [10]: 12.5 µg/mL
- MIC [15]: > 100 µg/mL
- MIC [17]: 12.5 µg/mL
- MIC [18]: 12.5 µg/mL
- MIC [19]: > 100 µg/mL
- MIC [20]: 100 µg/mL
- MIC [23]: 12.5 µg/mL
- MIC [25]: 50 µg/mL
- MIC [30]: 50 µg/mL
- MIC [31]: 6.25 µg/mL
- MIC [32]: 50 µg/mL
- MIC [33]: > 100 µg/mL
- MIC [39]: > 100 µg/mL
- MIC [40]: 50 µg/mL
- MIC [41]: 3.12 µg/mL
- MIC [44]: > 100 µg/mL
- MIC [47]: 3.12 µg/mL
- MIC [48]: > 100 µg/mL
- MIC [49]: 12.5 µg/mL
Compound: H-KKCIAKAILKKAKKLLKDLVNP-OH
- MBC [4]: < 1.56 µg/mL
- MBC [1]: 1.56 µg/mL
- MFC [6]: > 100 µg/mL
- MBC [2]: > 100 µg/mL
- MBC [8]: 3.12 µg/mL
- MBC [11]: 25 µg/mL
- MIC [12]: < 1.56 µg/mL
- MBC [13]: 3.12 µg/mL
- MBC [14]: 50 µg/mL
- MBC [16]: 12.5 µg/mL
- MBC [21]: > 100 µg/mL
- MBC [22]: 12.5 µg/mL
- MBC [24]: > 100 µg/mL
- MBC [26]: 50 µg/mL
- MBC [27]: 100 µg/mL
- MBC [28]: 12.5 µg/mL
- MBC [29]: > 100 µg/mL
- MBC [34]: > 100 µg/mL
- MFC [35]: > 100 µg/mL
- MBC [36]: > 100 µg/mL
- MBC [37]: > 100 µg/mL
- MBC [38]: 50 µg/mL
- MBC [42]: 100 µg/mL
- MBC [43]: 12.5 µg/mL
- MBC [45]: 6.25 µg/mL
- MBC [46]: 12.5 µg/mL
- hemolysis at 1 h, 100 ug/ml [3]: 3.7%

Compound: H-GKCIAKAILKGAKKLLKKLVNP-OH
- MBC [1]: 1.56 µg/mL
- MBC [2]: 100 µg/mL
- hemolysis at 1 h, 100 ug/ml [3]: 31.8%

Compound: H-FKDKSVLKIVDIFVDIYF-OH
- MBC [1]: > 100 µg/mL
- MBC [2]: > 100 µg/mL
- hemolysis at 1 h, 100 ug/ml [3]: 2.7%

Compound: H-GECIWDAIFHGAKHFLHRLVNP-OH
- MBC [1]: > 100 µg/mL
- MBC [2]: > 100 µg/mL
- hemolysis at 1 h, 100 ug/ml [3]: 28.5%

Compound: C[C@H]1c2cccc(O)c2C(=O)C2=C(O)[C@]3(O)C(=O)C(C(N)=O)=C(O)[C@@H](N(C)C)[C@@H]3[C@@H](O)[C@@H]21.O [DOXYCYCLINE]
- MBC [4]: < 1.56 µg/mL
- MIC [5]: < 1.56 µg/mL
- MFC [6]: > 100 µg/mL
- MIC [7]: < 1.56 µg/mL
- MBC [8]: < 1.56 µg/mL
- MIC [9]: 6.25 µg/mL
- MIC [10]: < 1.56 µg/mL
- MBC [11]: 25 µg/mL
- MIC [12]: < 1.56 µg/mL
- MBC [13]: < 1.56 µg/mL
- MBC [14]: 100 µg/mL
- MIC [15]: > 100 µg/mL
- MIC [50]: 0.048 µg/mL
- MBC [16]: 6.25 µg/mL
- MIC [17]: < 1.56 µg/mL
- MIC [18]: < 1.56 µg/mL
- MIC [19]: < 1.56 µg/mL
- MIC [20]: 6.25 µg/mL
- MBC [21]: < 1.56 µg/mL
- MBC [22]: < 1.56 µg/mL
- MIC [23]: < 1.56 µg/mL
- MBC [24]: 6.25 µg/mL
- MIC [25]: < 1.56 µg/mL
- fold change (FC) [51]: 128
- MBC [26]: 25 µg/mL
- MBC [27]: 50 µg/mL
- MBC [28]: < 1.56 µg/mL
- MIC [30]: 25 µg/mL
- MIC [31]: < 1.56 µg/mL
- MIC [32]: < 1.56 µg/mL
- MIC [33]: < 1.56 µg/mL
- MBC [34]: 12.5 µg/mL
- MFC [35]: > 100 µg/mL
- MBC [36]: 12.5 µg/mL
- MBC [37]: < 1.56 µg/mL
- MBC [38]: 50 µg/mL
- MIC [39]: > 100 µg/mL
- MIC [40]: 3.12 µg/mL
- MIC [41]: < 1.56 µg/mL
- MBC [42]: 50 µg/mL
- MBC [43]: < 1.56 µg/mL
- MIC [44]: < 1.56 µg/mL
- MBC [45]: 12.5 µg/mL
- MBC [46]: < 1.56 µg/mL
- MIC [47]: < 1.56 µg/mL
- Activity [52]: 25%
- MIC [48]: < 1.56 µg/mL
- MIC [49]: 1.56 µg/mL

— ChEMBL document CHEMBL5346873, “Strategic modification of low-activity natural antimicrobial peptides confers antibacterial potential in vitro and in vivo” (Eur J Med Chem, 2023)
